# Source: PMC5831858, “Pharmacological characterisation of CR6086, a potent prostaglandin E2 receptor 4 antagonist, as a new potential disease-modifying anti-rheumatic drug” (Arthritis Research & Therapy, 2018)
# Marks after values point to notes of the source that are not given here.
# Experiments:
# [1] = system: arthritic mice (collagen-induced arthritis model); experiment: CIA in mice, third study (CR6086, MTX, combination): clinical score, oedema, histology; type: in vivo, mouse; settings: for CLINICAL SCORE (interquartile range): median (IQR)
# [2] = system: arthritic mice (collagen-induced arthritis model); experiment: Serum anti-bCII IgG antibodies (ELISA), CIA mice third study; type: in vivo, mouse; settings: end of treatment
# Protocol: In a third study, mice were randomised into the following treatment groups: naive, vehicle, 30 mg/kg CR6086, 1 or 3 mg/kg MTX, with the latter administered alone or in combination with 30 mg/kg CR6086. CR6086 was administered orally once daily. MTX was administered intraperitoneally three times per week (every third day). Mice were treated with test drugs for 16 days.
# At the end of the treatment period, animals were killed, and their paws were explanted and processed for histology. In the third study, the serum concentrations of immunoglobulin G (IgG) antibodies against bCII were measured by ELISA (catalogue number 2032; Chondrex, Redmond, WA, USA).
# [3] = system: arthritic mice (collagen-induced arthritis model); experiment: CIA in mice, first study: clinical score and paw swelling; type: in vivo, mouse; settings: 10 days; CR6086 30 and 60 mg/kg, naproxen 60 mg/kg oral once daily; etanercept 10 mg/kg i.p. every other day
# Protocol: Male DBA/1 mice were immunised by intradermal injection at the base of the tail with an emulsion of 200 μg of bCII in CFA containing 3 mg/ml Mycobacterium tuberculosis. Non-immunised mice served as the negative control of disease. Animals were monitored by visual inspection for appearance of peripheral oedema. […] Upon onset, animals were recruited and randomised. Recruitment was given a cut-off at day 40. Upon recruitment, arthritis clinical score was assigned, and oedema was measured via caliper.
# (§1) In a first study, mice were randomised into the following treatment groups: vehicle, 30 mg/kg CR6086, 60 mg/kg CR6086, 60 mg/kg naproxen and 10 mg/kg etanercept. Animals received the test drugs for 10 days. CR6086 and naproxen were administered orally once daily, whereas etanercept was administered intraperitoneally every other day. Animals treated with vehicle, 60 mg/kg CR6086, naproxen and etanercept were additionally analysed for the proportion of populations of Th17 cells, Th1 cells, regulatory T cells, B cells, macrophages, neutrophils and dendritic cells by fluorescence-activated cell sorting (FACS) after collection of blood, draining lymph nodes and joints.
# Oedema measurement was performed every day before treatment, and all animals were blindly scored for clinical signs of arthritis as follows: 0 = normal; 1 = slight swelling and/or erythema; 2 = pronounced oedematous swelling; and 3 = ankyloses and severe swelling. A score of 0.5 was given to swollen toe/toes or when inflammation was localised to one part of the foot. Each limb was measured separately, with a final score based on the sum of the scores from all four paws.
# [4] = system: arthritic mice (collagen-induced arthritis model); experiment: FACS analysis of cell populations in the joint, CIA mice; type: in vivo, mouse; settings: CR6086 60 mg/kg, naproxen 60 mg/kg, etanercept 10 mg/kg, mean ± SEM
# Protocol: as §1
# [5] = system: arthritic rats (collagen-induced arthritis model); experiment: Collagen-induced arthritis in rats: clinical score, oedema, histology; type: in vivo, rat; settings: 15 mg/kg once daily
# Protocol: (§2) Male Lewis rats were immunised by intradermal injection at the base of the tail with an emulsion containing 150 μg of bovine collagen type II (bCII) in complete Freund’s adjuvant (CFA) or received an injection with incomplete Freund’s adjuvant (sham group). Three weeks after the first immunisation, animals were boosted with the same procedure. Three days after booster injection, arthritis had developed in all animals but the sham group. Oedema was assessed via plethysmometer (Ugo Basile, Varese, Italy), and the animals were then randomised to treatment groups. Oedema measurement was performed again after 7 and 14 days of treatment. Animals were blindly scored by two different investigators for clinical signs of arthritis (redness, swelling, pain of hind limb joints) as follows: 0 = normal; 1 = mild but definite redness and swelling of the ankle or wrist or individual digits, regardless of the number of affected digits; 2 = moderate redness and swelling of ankle or wrist; 3 = severe redness and swelling of the entire paw including digits; and 4 = maximally inflamed limb with involvement of multiple joints. The mean of the scores assigned by the investigators was calculated.
# Three different experiments in rat CIA are reported: a dose-response study, as well as two comparative studies vs the COX-2 inhibitor rofecoxib and the Janus kinase (JAK) inhibitor tofacitinib, respectively.
# Briefly, the paws were fixed in 10% neutral buffered formalin (Bio-Optica, Milan, Italy) and subsequently decalcified in EDTA for 4 weeks. Samples were dehydrated in an ethanol series and embedded in paraffin. At least three non-consecutive sections for each paw were blindly scored at the level of the tarsus, metatarsus and calcaneus for the following histological features: synovial oedema, pannus, synovial inflammatory cell infiltrate, cartilage damage, osteolysis and woven bone. Based on these histological features, a synovial score (synovial oedema, plus synovial inflammatory cell infiltrate, plus pannus), a bone score (woven bone plus osteolysis) and a total score were calculated. Two independent pathologists performed histopathology on blinded slides. The data of right and left hind limbs were summed for each rat.
# [6] = system: arthritic rats (collagen-induced arthritis model); experiment: Mechanical hyperalgesia (PAM) in CIA rats; type: in vivo, rat; settings: 15 mg/kg, mean ± SEM
# Protocol: as §2
# In the comparative experiment vs rofecoxib, mechanical hyperalgesia was assessed at the end of treatment by using a digital pressure application measurement (PAM) device (Ugo Basile). Increasing pressure was applied to the lateral side of the knee until the animal attempted to escape or vocalised. The force required to elicit this response was measured in grams (gram-force). An optimal stimulus increase rate of 100 g/second was used, and mechanical thresholds were reached after approximately 10 seconds. This increase was visualised with a rate meter on the built-in display, so the pressure applied was visually controlled. At the end of the experiment, animals were killed, and their hind paws were explanted and processed for histology.
compound,measurement,setting,value
"CN(Cc1cnc2nc(N)nc(N)c2n1)c1ccc(C(=O)N[C@@H](CCC(=O)O)C(=O)O)cc1 [MTX, methotrexate]",effect on joint histopathology,"[1]; 16 days, 30 mg/kg CR6086, 3 mg/kg MTX, alone or combined",significantly improved all histological features of arthritis
same,CLINICAL SCORE (interquartile range),"[1]; DAY 0, 1 mg/kg MTX",3.0 (2.4 – 3.3) *
same,CLINICAL SCORE (interquartile range),"[1]; DAY 0, 3 mg/kg MTX",2.0 (2.0 – 2.0) *
same,CLINICAL SCORE (interquartile range),"[1]; DAY 1, 1 mg/kg MTX",2.8 (2.0 – 3.0)
same,CLINICAL SCORE (interquartile range),"[1]; DAY 1, 3 mg/kg MTX",2.3 (2.0 – 3.0)
same,CLINICAL SCORE (interquartile range),"[1]; DAY 2, 1 mg/kg MTX",3.0 (3.0 – 4.0)
same,CLINICAL SCORE (interquartile range),"[1]; DAY 2, 3 mg/kg MTX",3.0 (2.1 – 3.8)
same,CLINICAL SCORE (interquartile range),"[1]; DAY 3, 1 mg/kg MTX",4.0 (3.0 – 4.8)
same,CLINICAL SCORE (interquartile range),"[1]; DAY 3, 3 mg/kg MTX",3.0 (2.3 – 6.0)
same,CLINICAL SCORE (interquartile range),"[1]; DAY 4, 1 mg/kg MTX",3.5 (3.0 – 5.5)
same,CLINICAL SCORE (interquartile range),"[1]; DAY 4, 3 mg/kg MTX",4.0 (2.0 – 5.5)
same,CLINICAL SCORE (interquartile range),"[1]; DAY 5, 1 mg/kg MTX",5.0 (3.4 – 6.3)
same,CLINICAL SCORE (interquartile range),"[1]; DAY 5, 3 mg/kg MTX",3.5 (2.4 – 4.8)
same,CLINICAL SCORE (interquartile range),"[1]; DAY 6, 1 mg/kg MTX",4.8 (3.3 – 8.1)
same,CLINICAL SCORE (interquartile range),"[1]; DAY 6, 3 mg/kg MTX",4.0 (2.0 – 5.5)
same,CLINICAL SCORE (interquartile range),"[1]; DAY 7, 1 mg/kg MTX",4.5 (2.8 – 7.5)
same,CLINICAL SCORE (interquartile range),"[1]; DAY 7, 3 mg/kg MTX",4.5 (2.6 – 6.0)
same,CLINICAL SCORE (interquartile range),"[1]; DAY 8, 1 mg/kg MTX",5.5 (3.8 – 7.6)
same,CLINICAL SCORE (interquartile range),"[1]; DAY 8, 3 mg/kg MTX",4.3 (2.4 – 6.4)
same,CLINICAL SCORE (interquartile range),"[1]; DAY 9, 1 mg/kg MTX",5.0 (3.3 – 7.0)
same,CLINICAL SCORE (interquartile range),"[1]; DAY 9, 3 mg/kg MTX",4.5 (3.0 – 5.0)
same,CLINICAL SCORE (interquartile range),"[1]; DAY 10, 1 mg/kg MTX",6.5 (3.0 – 7.3)
same,CLINICAL SCORE (interquartile range),"[1]; DAY 10, 3 mg/kg MTX",5.0 (2.5 – 5.5)
same,CLINICAL SCORE (interquartile range),"[1]; DAY 11, 1 mg/kg MTX",7.3 (4.4 – 7.5)
same,CLINICAL SCORE (interquartile range),"[1]; DAY 11, 3 mg/kg MTX",5.0 (2.5 – 6.0)
same,CLINICAL SCORE (interquartile range),"[1]; DAY 12, 1 mg/kg MTX",6.8 (5.3 – 7.5)
same,CLINICAL SCORE (interquartile range),"[1]; DAY 12, 3 mg/kg MTX",5.5 (2.0 – 7.5)
same,CLINICAL SCORE (interquartile range),"[1]; DAY 13, 1 mg/kg MTX",6.3 (4.5 – 7.0)
same,CLINICAL SCORE (interquartile range),"[1]; DAY 13, 3 mg/kg MTX",6.0 (2.0 – 7.0)
same,CLINICAL SCORE (interquartile range),"[1]; DAY 14, 1 mg/kg MTX",7.3 (5.0 – 7.6)
same,CLINICAL SCORE (interquartile range),"[1]; DAY 14, 3 mg/kg MTX",4.5 (2.0 – 6.0)
same,CLINICAL SCORE (interquartile range),"[1]; DAY 15, 1 mg/kg MTX",6.5 (5.0 – 7.5)
same,CLINICAL SCORE (interquartile range),"[1]; DAY 15, 3 mg/kg MTX",4.5 (3.1 – 7.0)
same,CLINICAL SCORE (interquartile range),"[1]; DAY 16, 1 mg/kg MTX",6.5 (5.5 – 8.3)
same,CLINICAL SCORE (interquartile range),"[1]; DAY 16, 3 mg/kg MTX",4.5 (2.3 – 5.4)
same,Anti-collagen II,[2]; 1 mg/kg MTX,483.83 ± 102.82 µg/mL
same,Anti-collagen II,[2]; 3 mg/kg MTX,242.46 ± 79.35 µg/mL
etanercept,"effect on disease parameters (visual clinical score, paw swelling) vs vehicle",[3],significantly improved
same,"B cells, Percentage of total cells",[4],5.74 ± 0.68%
same,"Dendritic cells, Percentage of total cells",[4],1.51 ± 0.18%
same,"Macrophages, Percentage of total cells",[4],12.31 ± 5.19%
same,"Neutrophils, Percentage of total cells",[4],10.53 ± 2.81%
same,"Th1, Percentage of total cells",[4],0.20 ± 0.05^a %
same,"Th17, Percentage of total cells",[4],0.16 ± 0.08%
same,"Treg, Percentage of total cells",[4],0.39 ± 0.10%
"CS(=O)(=O)c1ccc(C2=C(c3ccccc3)C(=O)OC2)cc1 [rofecoxib, reference compound]",effect on clinical score,[5],small effect
same,"effect on structural and inflammatory parameters (oedema, histology)",[5]; 14 days,improved to a slight but significant extent the inflammatory parameters (not the structural ones)
same,"Mechanical hyperalgesia, Day 0",[6]; Day 0,943.70 ± 73.42^a gram-force
same,"Mechanical hyperalgesia, Day 7",[6]; Day 7,673.18 ± 53.76^b gram-force
same,"Mechanical hyperalgesia, Day 14",[6]; Day 14,"799.68 ± 61.15^b,c gram-force"
